Assay results as given in patent EP0306904A2, “Phosphoric acid diesters and salts thereof” (Senju Pharmaceutical Co., Ltd., priority 1987, dated 1989).

Columns and labels:
[1] = system: mixture micelles, which were prepared from phospholipid (egg lecithin) and ethanol; assay: Anti-oxidative activity: oxidation of mixture micelles (egg lecithin and ethanol) by ferrous-ion/ascorbic acid, thiobarbituric acid readout; assay type: biochemical; conditions: for Rate of inhibition (%): 25 °C, 15 min, ferrous sulfate/sodium ascorbate; for inhibition of oxidation: summary in words of the micelle oxidation results
Protocol: Anti-oxidative activity of the compounds prepared in example 1 and example 4 were determined using, as an index, oxidation of mixture micelles, which were prepared from phospholipid (egg lecithin) and ethanol, by ferrous-ion/ascorbic acid
To a solution of approx. 78 mg of egg lecithin in 2 ml of ethanol was added gradually 5 mM HEPES buffer solution (pH 7.2), under sonication (50 W) and ice-cooling, to make a 100-ml suspension. To 1,000 µ l of the suspension were added 200 µ l of 2.6 x 10⁻⁴ M solution of one of the test compounds in 50 v/v % ethanol, 50 µ l of 5.0 x 10⁻⁵ M sodium ascorbate solution in water and 50 µ l of 2.5 x 10⁻⁶ M ferrous sulfate solution in water. The mixture was placed in a water bath at 25 °C for 15 min for oxidation. Instantly after the reaction, 50 µ l of 0.1 % hydroquinone solution in ethanol was added to stop the reaction. To the mixture were added 200 µ l of 20 w/v % trichloroacetic acid and 2,000 µ l of 50 v/v % acetic acid containing thiobarbituric acid (Merck) at the concentration of 0.35 %, followed by heating for 15 min under reflux at 100 °C. After cooling, absorp tion within the range of 450-600 nm was measured by spectrophotography, within which range increase in absorbance at approx. 530-540 nm was determined. […]

[2] = system: lens; assay: Anti-oxidative activity in a model employing UV-induced oxidation of the lens
[3] = Final concentration 4.0 x 10⁻⁵ (unit not given; M)
[4] = Final concentration 4.0 x 10⁻⁶ (unit not given; M)

Q: `Cc1c(C)c2c(c(C)c1OP(=O)([O-])OC1=C(O)[C@@H]([C@@H](O)CO)OC1=O)CCC(C)(CCCC(C)CCCC(C)CCCC(C)CCCC(C)C)O2.[K+]` (stereo partly drawn) [Example 4, potassium salt of phosphoric acid (L-ascorbic acid-2-0)(2,5,7,8-tetramethyl-2-(4,8,12,16-tetramethylheptadecyl)chromanyl-6) ester] was tested. Which “Rate of inhibition (%)” value [1, 3] did it give?
A: 99.90%

Q: And the “Rate of inhibition (%)” value [1, 4]?
A: 95.22%

Q: What about the inhibition of oxidation [1] of the same compound?
A: nearly complete inhibition of oxidation

Q: What about the “inhibition of accumulation of malonedialdehyde” value [2] of the same compound?
A: significant inhibition

Q: How did the “Rate of inhibition (%)” value [1, 3] turn out when `Cc1c(C)c2c(c(C)c1OP(=O)([O-])OC1=C(O)[C@@H]([C@@H](O)CO)OC1=O)CCC(C)(CCCC(C)CCCC(C)C)O2.[K+]` (stereo partly drawn) [Example 1, potassium salt of phosphoric acid (L-ascorbic acid-2-0)(2,5,7,8-tetramethyl-2-(4,8-dimethylnonyl)chromanyl-6) ester] was run?
A: 94.44%

Q: And the “Rate of inhibition (%)” value [1, 4]?
A: 89.57%

Q: What about the inhibition of oxidation [1] of the same compound?
A: nearly complete inhibition of oxidation

Q: And the “inhibition of accumulation of malonedialdehyde” value [2]?
A: significant inhibition
